Source: patent US20080234464A1, “Compound Having Amino Acid Residue or Peptide Residue and Process for Producing the Same” (priority 2005, published 2008)

Assays:
Type in all cases: cell-based
[1] = test system: PC3 (human lung adenocarcinoma) cells; experiment: Nucleic acid transfection experiment (siRNA level), FITC-labeled siRNA, flow cytometer; details: compounds (1-A)/(1-B): 0.6 mM), 0.5 μg FITC-labeled siRNA, 2 hours
Description: (§1) In order to attain 50 to 60% confluence at the time of siRNA transfection, PC3 ([…]) cells, UMUC3 (human bladder carcinoma) cells and T24 (human urinary bladder carcinoma) cells were separately seeded in a 6-well plate on the day before the transfection and cultured at 37° C. in a 5% CO2 incubator.
(§2) A 100-μl quantity of Opti-MEM was added to each of several 1.5-ml tubes, and two samples each of 1, 3 and 10 μl of PBS solution containing the carriers for nucleic acid transfection of Reference Example 3 in one of the two samples and Reference Example 8 in the other sample (each carrier for nucleic acid transfection content had been adjusted so that compound (1L-A) was at 0.067 mM) were separately added to each tube and then left to stand at room temperature for about 10 minutes. Further, 0.5 μg of FITC-labeled siRNA (fluorescent labeled siRNA ((sense)Fluo-[…]/(antisense)[…]: product of Proligo) was added to each tube and then left to stand for 15 minutes, forming a complex of siRNA and the carrier for gene transfection.
(§3) Separately, 50 μl of Opti-MEM was added to each of several 1.5-ml tubes, and two samples each of 1, 3 and 10 μl of PBS solution containing 0.6 mM compound (1-A) in one of the two samples and 0.6 mM compound (1-B) in the other sample were separately added to each tube, mixed by tapping, and then left to stand at room temperature for 5 minutes. Further, 0.5 μg of FITC-labeled siRNA (same as above) was added to each tube and then left to stand for 30 minutes, forming a complex of the siRNA and carrier for gene transfection.
(§4) After a while, the prepared solutions containing the siRNA and carrier for gene transfection were separately added to the wells in which the cells were present at 50 to 60% confluence. The plates were slowly pitched and rolled, and culture was then performed at 37° C. under a condition of 5% CO2 for 2 hours. After the culture was completed, FITC-positive cells were counted by a flow cytometer to calculate the siRNA transfection efficiency (%) in cells. Further, for comparison with conventional carriers for nucleic acid transfection (Lipofectamine 2000, TransIt-TKO, Metafectene, and oligofectamine), siRNA transfection efficiency (%) in cells was calculated in the same manner as above using the protocol recommended by the respective manufacture and corresponding to a transfection nucleic acid amount of 0.5 μg.

[2] = test system: UMUC3 (human bladder carcinoma) cells; experiment: as above; details: compounds (1-A)/(1-B): 0.6 mM), 0.5 μg FITC-labeled siRNA, 2 hours
Description: as §1, §2, §3, §4

[3] = test system: T24 (human urinary bladder carcinoma) cells; experiment: as above; details: compounds (1-A)/(1-B): 0.6 mM), 0.5 μg FITC-labeled siRNA, 2 hours
Description: as §1, §2, §3, §4

[4] = test system: PC3 (human lung adenocarcinoma) cells; experiment: Nucleic acid transfection experiment (oligo DNA level), FITC-labeled single-strand DNA, FACS; details: for DNA transfection efficiency in cells (%): PC3, 0.3 μg FITC-labeled single-strand DNA (20 mer), 4 hours at 37° C.
Description: (§5) PC3 ([…]) cells, UMUC3 (human bladder carcinoma) cells, T24 (human urinary bladder carcinoma) cells and NIH-3T3 (mouse embryonic fibroblast) cells were separately precultured in a 12-well plate, either in a 10% FBS-containing RPMI medium (PC3 cells, NIH-3T3 cells, and T24 cells) or in a 10% FBS-containing DMEM medium (UMUC cells), to attain a 60 to 70% confluent state.
(§6) A 1 μl quantity of each of the compounds shown in Table 1 [solutions containing compound (1-A) or (1-B) at 0.37, 0.13 and 0.04 mM] was added to each of a corresponding number of containers each holding 50 μl of non-serum medium, mixed by tapping, and incubated at room temperature for 5 minutes. Subsequently, 0.3 μg of FITC-labeled single-strand DNA (20 mer) (FITC-[…]: product of Proligo) was added to each of the above-prepared media containing a carrier for nucleic acid transfection, mixed by tapping, and incubated at 37° C. for 30 minutes (mixed by tapping every 10 minutes). The obtained mixtures were separately added to the above wells in which the cell culture had been completed, leveled by lightly tapping, and then incubated at 37° C. for 4 hours. The cells were collected, and FITC-positive cells were counted by FACS to calculate DNA transfection efficiency (%) in cells. Further, for the comparison with conventional carriers for nucleic acid transfection (Lipofectamine 2000, TransIt-TKO, and Fugene 6), siRNA transfection efficiency (%) in PC3 cells was calculated in the same manner as above using the protocol recommended by the respective manufacturer and corresponding to a transfection nucleic acid amount of 0.3 μg.

[5] = test system: UMUC3 (human bladder carcinoma) cells; experiment: as above; details: 0.3 μg FITC-labeled single-strand DNA (20 mer), 4 hours at 37° C.
Description: as §5, §6

[6] = test system: NIH-3T3 (mouse embryonic fibroblast) cells; experiment: as above; details: 0.3 μg FITC-labeled single-strand DNA (20 mer), 4 hours at 37° C.
Description: as §5, §6

[7] = test system: T24 (human urinary bladder carcinoma) cells; experiment: as above; details: 0.3 μg FITC-labeled single-strand DNA (20 mer), 4 hours at 37° C.
Description: as §5, §6

[8] = amount 1 μl of carrier solution (Reference Examples: 0.067 mM as compound (1L-A)
[9] = amount 3 μl of carrier solution (Reference Examples: 0.067 mM as compound (1L-A)
[10] = amount 10 μl of carrier solution (Reference Examples: 0.067 mM as compound (1L-A)
[11] = 1 μl of 0.04 mM compound solution
[12] = 1 μl of 0.13 mM compound solution
[13] = 1 μl of 0.37 mM compound solution

## N=C(N)NCCCC(N)C(=O)CC(CNC(=N)N)C(=O)NC(CCCNC(=N)N)C(=O)NCCCCC(N)C(=O)NC(CCCCNC(=O)C(CCCNC(=N)N)NC(=O)C(CNC(=N)N)CC(=O)C(N)CCCNC(=N)N)C(=O)NC(CCCCNC(=O)C(CCCNC(=N)N)NC(=O)C(CNC(=N)N)CC(=O)C(N)CCCNC(=N)N)C(=O)NC(CCCCNC(=O)C(CCCNC(=N)N)NC(=O)C(CNC(=N)N)CC(=O)C(N)CCCNC(=N)N)C(=O)NC(CCCCNC(=O)C(CCCNC(=N)N)NC(=O)C(CNC(=N)N)CC(=O)C(N)CCCNC(=N)N)C(=O)NCCCCCC(=O)NCCCCCC(N)=O (stereo not shown) [(1-B)]
[1]; [8]
  siRNA transfection efficiency in cells (%): 3.5%
[1]; [9]
  siRNA transfection efficiency in cells (%): 10.1%
[1]; [10]
  siRNA transfection efficiency in cells (%): 42.0%
[2]; [8]
  siRNA transfection efficiency in cells (%): 5.3%
[2]; [9]
  siRNA transfection efficiency in cells (%): 4.4%
[2]; [10]
  siRNA transfection efficiency in cells (%): 7.0%
[3]; [8]
  siRNA transfection efficiency in cells (%): 11.6%
[3]; [9]
  siRNA transfection efficiency in cells (%): 19.2%
[3]; [10]
  siRNA transfection efficiency in cells (%): 60.7%
[4]; [11]
  DNA transfection efficiency in cells (%): 65.0%
[4]; [12]
  DNA transfection efficiency in cells (%): 76.1%
[4]; [13]
  DNA transfection efficiency in cells (%): 83.8%
[4]; conclusion over PC3, UMUC3, T24 and NIH-3T3 cells
  suitability for introducing nucleic acids into cells (conclusion from Table 1): excellently suitable for introducing nucleic acids into cells
[5]; [11]
  DNA transfection efficiency in cells (%): 61.7%
[5]; [12]
  DNA transfection efficiency in cells (%): 77.2%
[5]; [13]
  DNA transfection efficiency in cells (%): 61.5%
[6]; [11]
  DNA transfection efficiency in cells (%): 84.0%
[6]; [12]
  DNA transfection efficiency in cells (%): 93.2%
[6]; [13]
  DNA transfection efficiency in cells (%): 87.0%
[7]; [11]
  DNA transfection efficiency in cells (%): 13.4%
[7]; [12]
  DNA transfection efficiency in cells (%): 26.0%
[7]; [13]
  DNA transfection efficiency in cells (%): 31.4%
